Data on one compound can be found in patent US20090076111A1, “Methods for improving glycemic control in humans” (priority 2004, published 2009).

Series [1] can be described thus: Preclinical oral bioavailability and urinary excretion of 4-OH-Ile in PROMILIN
Type of series: in vivo, rat. The settings on record: rats. As for the experimental part:
In addition to the human clinical portion of the study, preclinical trials were conducted in rats to assess if the 4-OH-Ile in PROMILIN™ is orally bioavailable to rats and if it is excreted in their urine.

In series [2] the test system is pancreatic beta cell. Particulars: major isomer (2S,3R,4S), micromolar concentrations, glucose dependent; cited from earlier work.

Consider `CC(O)C(C)C(N)C(=O)O` (racemic) [4-OH-Ile, 4-hydroxyisoleucine], for which the oral bioavailability result in series [1] (4-OH-Ile in PROMILIN, oral) is listed as “bioavailable”. Also, in series [1] (both diastereomers, after oral gavage of PROMILIN), the “time to absorption from the gut into the circulation” value is at most 15 min. The urinary excretion result in series [1] (both isomers) is reported as “excreted in the urine”. Moreover, the “appearance of 4-OH-Ile in the circulation” value in series [1] (coadministration of glucose and PROMILIN) is “slowed the appearance”. For the same compound, in series [2], the glucose-induced insulin secretion entry is “stimulate glucose-induced insulin secretion”.
